Like-named read-outs stand apart in the source and are kept apart here.
Legend:
[1] = biological target: T1, mTOR (Homo sapiens, UniProt P42345); assay: mTOR kinobeads assay (competitive binding in Jurkat cell lysate, immunodetection); conditions: kinobeads assay
T1 construct: endogenous in cells; host or cells: Jurkat, clone E6-1 (ATCC TIB-152) cell lysate
Outline: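 IC50 derived from dose-response curves of mTOR captured on immobilized phenylmorpholin-chromen beads, detected by antibody dot blot with infrared fluorescence.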

[2] = biological target: T2, PI3Kalpha (PI3Ka) (Homo sapiens, UniProt P42336); assay: kinobeads assay, PI3Kalpha; format: binding; conditions: kinobeads assay, Table 6
T2 construct: endogenous in cells; host or cells: cell lysate
Outline: (§1)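 In this bead competition format, compound and immobilized phenylmorpholin-chromen ligand compete for kinases in cell lysate. Eluted captured kinases were measured by multiplexed immunodetection, and IC50 was calculated.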

[3] = biological target: T3, PI3 Kbeta (PI3 Kb) (Homo sapiens, UniProt P42338); assay: kinobeads assay, PI3Kbeta; format: binding; conditions: kinobeads assay, Table 6; read-out: Inhibition values (IC50) PI3Kb
T3 construct: endogenous in cells; host or cells: cell lysate
Outline: as §1

[4] = Table 4, read-out: Inhibition values (IC50) mTor
[5] = Table 6, read-out: Inhibition values (IC50) mTOR

T3 sequence (P42338 whole entry): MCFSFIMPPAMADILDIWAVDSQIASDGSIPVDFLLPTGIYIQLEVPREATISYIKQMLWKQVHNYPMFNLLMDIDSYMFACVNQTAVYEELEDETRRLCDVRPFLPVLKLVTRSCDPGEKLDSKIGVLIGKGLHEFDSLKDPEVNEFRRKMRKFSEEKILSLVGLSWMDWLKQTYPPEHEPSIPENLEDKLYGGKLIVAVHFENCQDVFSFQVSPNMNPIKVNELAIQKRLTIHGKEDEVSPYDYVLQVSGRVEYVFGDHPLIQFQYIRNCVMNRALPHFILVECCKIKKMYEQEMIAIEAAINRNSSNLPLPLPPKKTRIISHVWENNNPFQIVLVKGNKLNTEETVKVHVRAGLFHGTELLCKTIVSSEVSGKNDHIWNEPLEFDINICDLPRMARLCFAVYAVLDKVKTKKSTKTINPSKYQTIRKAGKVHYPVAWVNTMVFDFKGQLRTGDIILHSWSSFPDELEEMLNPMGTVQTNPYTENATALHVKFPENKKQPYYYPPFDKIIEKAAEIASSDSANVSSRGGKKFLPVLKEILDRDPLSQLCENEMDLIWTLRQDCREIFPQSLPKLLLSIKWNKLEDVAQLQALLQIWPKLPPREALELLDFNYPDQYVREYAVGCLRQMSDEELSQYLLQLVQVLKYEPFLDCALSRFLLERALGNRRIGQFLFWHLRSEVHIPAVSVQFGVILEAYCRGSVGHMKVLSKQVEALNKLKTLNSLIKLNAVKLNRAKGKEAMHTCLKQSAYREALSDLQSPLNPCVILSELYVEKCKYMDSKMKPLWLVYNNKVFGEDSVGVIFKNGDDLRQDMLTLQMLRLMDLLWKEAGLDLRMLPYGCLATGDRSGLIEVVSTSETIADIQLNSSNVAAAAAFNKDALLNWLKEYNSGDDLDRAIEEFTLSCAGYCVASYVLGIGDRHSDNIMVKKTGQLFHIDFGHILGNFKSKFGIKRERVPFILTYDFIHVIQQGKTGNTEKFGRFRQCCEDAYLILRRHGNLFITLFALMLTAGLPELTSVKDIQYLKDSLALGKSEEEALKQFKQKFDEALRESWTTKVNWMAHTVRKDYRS
T3 sequence (P27986 whole entry partner): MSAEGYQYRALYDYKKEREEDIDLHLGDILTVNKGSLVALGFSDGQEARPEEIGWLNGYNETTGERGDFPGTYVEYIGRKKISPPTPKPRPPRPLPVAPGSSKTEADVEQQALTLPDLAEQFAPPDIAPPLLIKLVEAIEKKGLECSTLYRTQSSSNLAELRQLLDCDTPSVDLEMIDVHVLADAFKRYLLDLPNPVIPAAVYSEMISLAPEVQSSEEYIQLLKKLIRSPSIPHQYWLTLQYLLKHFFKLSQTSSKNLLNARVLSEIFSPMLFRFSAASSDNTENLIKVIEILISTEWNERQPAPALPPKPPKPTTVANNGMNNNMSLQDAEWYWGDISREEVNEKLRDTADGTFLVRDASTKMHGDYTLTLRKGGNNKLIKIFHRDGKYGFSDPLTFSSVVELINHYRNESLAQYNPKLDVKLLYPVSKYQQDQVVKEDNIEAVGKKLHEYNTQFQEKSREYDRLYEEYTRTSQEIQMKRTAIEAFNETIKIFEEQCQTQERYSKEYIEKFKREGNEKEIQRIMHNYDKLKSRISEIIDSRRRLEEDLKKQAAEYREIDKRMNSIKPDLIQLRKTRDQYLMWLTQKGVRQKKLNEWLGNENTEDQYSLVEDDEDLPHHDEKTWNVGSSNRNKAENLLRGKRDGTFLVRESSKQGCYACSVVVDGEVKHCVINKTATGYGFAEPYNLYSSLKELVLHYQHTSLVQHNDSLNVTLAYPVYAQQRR
T2 sequence (P42336 whole entry): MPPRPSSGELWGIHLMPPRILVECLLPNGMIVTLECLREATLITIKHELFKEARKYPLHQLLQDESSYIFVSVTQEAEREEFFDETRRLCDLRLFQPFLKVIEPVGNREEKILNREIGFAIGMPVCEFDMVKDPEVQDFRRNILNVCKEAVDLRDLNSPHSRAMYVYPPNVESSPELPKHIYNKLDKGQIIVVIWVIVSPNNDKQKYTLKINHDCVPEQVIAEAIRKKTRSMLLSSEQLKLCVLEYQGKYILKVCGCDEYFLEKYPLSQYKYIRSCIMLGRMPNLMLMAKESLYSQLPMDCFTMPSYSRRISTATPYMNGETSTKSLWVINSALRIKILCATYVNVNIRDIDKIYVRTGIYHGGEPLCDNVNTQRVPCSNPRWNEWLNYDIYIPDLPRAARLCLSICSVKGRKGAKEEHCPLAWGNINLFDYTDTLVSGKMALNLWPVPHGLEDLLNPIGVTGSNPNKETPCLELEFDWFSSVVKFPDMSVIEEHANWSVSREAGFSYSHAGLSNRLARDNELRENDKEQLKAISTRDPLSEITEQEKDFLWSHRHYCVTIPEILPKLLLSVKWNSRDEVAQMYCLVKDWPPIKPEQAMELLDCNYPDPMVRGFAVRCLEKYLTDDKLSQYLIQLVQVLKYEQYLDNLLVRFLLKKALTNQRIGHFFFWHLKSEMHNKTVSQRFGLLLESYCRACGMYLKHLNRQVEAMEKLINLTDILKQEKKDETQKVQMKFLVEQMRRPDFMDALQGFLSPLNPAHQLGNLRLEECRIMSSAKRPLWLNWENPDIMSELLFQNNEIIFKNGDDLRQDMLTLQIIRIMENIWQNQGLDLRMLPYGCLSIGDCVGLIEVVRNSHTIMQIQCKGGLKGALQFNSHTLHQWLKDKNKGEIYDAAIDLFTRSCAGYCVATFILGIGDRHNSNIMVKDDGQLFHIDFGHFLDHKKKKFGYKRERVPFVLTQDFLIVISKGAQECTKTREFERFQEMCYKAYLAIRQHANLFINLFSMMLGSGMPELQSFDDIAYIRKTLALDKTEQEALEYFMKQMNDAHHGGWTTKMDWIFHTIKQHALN
T2 sequence (P27986 whole entry partner): as the sequence (P27986 whole entry partner) above

| SMILES | IC50 [1, 4] [µM] | IC50 [1, 5] [µM] | Inhibition values (IC50) PI3Ka [2] | IC50 [3] [µM] |
| --- | --- | --- | --- | --- |
| CCNC(=O)Nc1ccc(-c2nc3c(c(N4CCOC[C@@H]4C)n2)CN(C(=O)OC(C)(C)C)C3)cc1 [Example 1, (S)-tert-butyl 2-(4-(3-ethylureido)phenyl)-4-(3-methylmorpholino)-5H-pyrrolo[3,4-d]pyrimidine-6(7H)-carboxylate] | 0.1 to 1 | 0.1 to 1 | – | – |
| C[C@H]1COCCN1c1nc(-c2ccc(NC(=O)NC3CC3)cc2)nc2c1CCN(C(=O)C(C)(C)C)C2 [Example 64, (S)-1-cyclopropyl-3-(4-(4-(3-methylmorpholino)-7-pivaloyl-5,6,7,8-tetrahydropyrido[3,4-d]pyrimidin-2-yl)phenyl)urea] | – | < 0.1 | D (D >10 μM) | > 10 |
| CC(C)CN1Cc2nc(-c3ccc(NC(=O)NC4CC4)cc3)nc(N3CCOC[C@@H]3C)c2C1 [Example 65, (S)-1-cyclopropyl-3-(4-(6-isobutyl-4-(3-methylmorpholino)-6,7-dihydro-5H-pyrrolo[3,4-d]pyrimidin-2-yl)phenyl)urea] | – | < 0.1 | D (D >10 μM) | > 10 |
| C[C@H]1COCCN1c1nc(-c2ccc(NC(=O)NC3CC3)cc2)nc2c1CN(CC(F)(F)F)C2 [Example 101, (S)-1-cyclopropyl-3-(4-(4-(3-methylmorpholino)-6-(2,2,2-trifluoroethyl)-6,7-dihydro-5H-pyrrolo[3,4-d]pyrimidin-2-yl)phenyl)urea] | – | 0.1 to 1 | – | – |
| C[C@H]1COCCN1c1nc(-c2ccc(NC(=O)NC3CC3)cc2)nc2c1CN(C(=O)C1CCOCC1)C2 [Example 129, (S)-1-cyclopropyl-3-(4-(4-(3-methylmorpholino)-6-(tetrahydro-2H-pyran-4-carbonyl)-6,7-dihydro-5H-pyrrolo[3,4-d]pyrimidin-2-yl)phenyl)urea] | – | < 0.1 | D (D >10 μM) | – |

Other lines, results leading:

| IC50 [1, 4] [µM] | IC50 [1, 5] [µM] | Inhibition values (IC50) PI3Ka [2] | IC50 [3] [µM] | SMILES |
| --- | --- | --- | --- | --- |
| < 0.1 | < 0.1 | D (D >10 μM) | > 10 | CCNC(=O)Nc1ccc(-c2nc3c(c(N4CCOC[C@@H]4C)n2)CCN(C(=O)C(C)(C)C)C3)cc1 [Example 58, (S)-1-ethyl-3-(4-(4-(3-methylmorpholino)-7-pivaloyl-5,6,7,8-tetrahydropyrido[3,4-d]pyrimidin-2-yl)phenyl)urea] |
| < 0.1 | < 0.1 | – | – | CCNC(=O)Nc1ccc(-c2nc3c(c(N4CCOC[C@@H]4C)n2)CCN(C(C)=O)C3)cc1 [Example 59, (S)-1-(4-(7-acetyl-4-(3-methylmorpholino)-5,6,7,8-tetrahydropyrido[3,4-d]pyrimidin-2-yl)phenyl)-3-ethylurea] |
| < 0.1 | < 0.1 | D (D >10 μM) | > 10 | C[C@H]1COCCN1c1nc(-c2ccc(NC(=O)NC3CC3)cc2)nc2c1CCN(C(=O)C1CC1)C2 [Example 60, (S)-1-(4-(7-(cyclopropanecarbonyl)-4-(3-methylmorpholino)-5,6,7,8-tetrahydropyrido[3,4-d]pyrimidin-2-yl)phenyl)-3-cyclopropylurea] |
| < 0.1 | < 0.1 | D (D >10 μM) | > 10 | CC(C)C(=O)N1CCc2c(nc(-c3ccc(NC(=O)NC4CC4)cc3)nc2N2CCOC[C@@H]2C)C1 [Example 61, (S)-1-cyclopropyl-3-(4-(7-isobutyryl-4-(3-methylmorpholino)-5,6,7,8-tetrahydropyrido[3,4-d]pyrimidin-2-yl)phenyl)urea] |
| < 0.1 | < 0.1 | D (D >10 μM) | > 10 | CC(=O)N1CCc2c(nc(-c3ccc(NC(=O)NC4CC4)cc3)nc2N2CCOC[C@@H]2C)C1 [Example 62, (S)-1-(4-(7-acetyl-4-(3-methylmorpholino)-5,6,7,8-tetrahydropyrido[3,4-d]pyrimidin-2-yl)phenyl)-3-cyclopropylurea] |

— US8785457B2 (Cellzome Limited, priority 2009, dated 2014)
